Source: patent US8399208B2, “Method and kit for the measurement of neutrophil cell activation” (Universite de Liege, priority 2004, dated 2013)

What was measured:
[1] = test system: activated equine neutrophils; experiment: MPO release by PMA-activated neutrophils, MPO measured by ELISA in the supernatant; type: cell-based, horse; settings: for Inhibitory percentage, MPO assay by ELISA in the supernatant after neutrophils activation with PMA (MPO release): drug concentration 10^-5 M
Experimental: FIG. 16 represents the inhibitory effect of curcumin on MPO release by neutrophils incubated in PBS buffer with or without stimulation with phorbol myristate acetate (PMA) (Curcumin (Curcu) was dissolved in ethanol. MPO was measured by ELISA in the supernatant of activated neutrophils).
The ELISA developed for MPO (1) measurement is further referred to as a MYELO-ELISA. Rabbit IgG, the primary antibody (2), is immobilized (coated) in excess (3 μg/ml) onto microtitration wells (3) (Cliniplate EB, Labsystem). Standard or test antigen (equine MPO (1)) is incubated overnight with the primary antibody (2) at 4° C. After washing (0.9% NaCl solution containing 0.1% tween 20), the immobilized antibody-antigen complex is incubated (2 h, 37° C.) with an excess (5 μg/ml) of guinea pig IgG, the secondary antibody (4). After washing, a third antibody (5) produced against guinea pig IgG is added. This third IgG (5) (goat IgG) is labelled with alkaline phosphatase (6) and recognizes the “sandwich” complex “primary antibody-MPO-secondary antibody”. After washing, phosphatase activity is detected by incubation (30 min, 37° C., in the darkness) with a paranitrophenyl phosphate solution (phosphatase substrate, Sigma). The reaction is stopped with NaOH and the absorbance (405 nm) is measured with a Multiscan Ascent apparatus (Labsystem) (7). All the volumes added into the wells comprise 100 μl, except for washing (300 μl) and for the substrate solution (200 μl). Controls (blank) and dilutions of the standard MPO and samples were established with dilution buffer [PBS (20 mM phosphate, 137 mM NaCl and 2.7 mM KCl pH 7.4) to which 5 g/L bovine serum albumin and 0.1% tween 20 was added]. The same ELISA technique was developed also for monoclonal antibodies as primary antibody.
(§1) Neutrophils isolated from citrated blood of healthy horses were counted, suspended in phosphate buffer saline (PBS) at pH 7.4 and incubated 10 min at 37° C. with curcumin or THC at the final concentration of 10^−4, 10^−5 or 10^−6 M. After incubation and centrifugation (1000×g, 10 min), the neutrophils were resuspended in PBS and either activated 30 min with 8×10^−7 M phorbol myristate acetate (PMA), with a simultaneous monitoring of the chemiluminescent response in presence of lucigenin (5×10^-8 M), or activated in the same conditions followed by centrifugation and MPO measurement in the supernatant. MPO, marker of neutrophil degranulation, was measured by a specific ELISA assay raised against equine MPO. The effect of polyphenols on MPO activity was tested by SIEFED (“Specific Immunological Extraction Followed by Enzymatic Detection”) method that allows the study of drug interaction with the enzyme without reaction medium interferences.

[2] = test system: activated equine neutrophils; experiment: Chemiluminescence response (lucigenin) of PMA-activated equine neutrophils; type: cell-based, horse; settings: for Inhibition percentage on chemiluminescence response of activated neutrophils: 10^-5 M, neutrophils activated with 8×10^-7 M PMA, lucigenin
Experimental: as §1

equine MPO = experiment: MPO activity by SIEFED (specific immunological extraction followed by enzymatic detection); type: biochemical, horse; settings: for Effect on MPO activity (in words): SIEFED, polyphenol incubated with MPO, then capture, washing, enzymatic detection
Experimental: FIG. 17 represents the inhibitory effect of curcumin on MPO activity. Concentration of MPO used: 9 ng/ml. The incubation time of curcumin with MPO before assay by SIEFED was 30 min. (The most concentrated curcumin solution was prepared in ethanol (175 mM) and dilutions of this concentrated solution were performed with PBS buffer).
As for the ELISA test, the primary antibody, that captures MPO, is rabbit IgG (3 μg/ml). Standard MPO or unknown sample is incubated 2 h at 37° C. After washing, the peroxidase activity of MPO is detected by adding 100 μl of a 10 μM H2O2 solution and 40 μM of Amplex® Red (10-acetyl-3,7-dihydroxyphenoxazine; Molecular Probes) in phosphate buffer (50 mM, pH 7.5). After incubation in the darkness (30 min, 37° C.), the fluorescence is read at 590 nm with a Fluoroskan Ascent apparatus (Labsystems). The volumes of the primary antibody and the sample put in the wells, are 200 μl. Controls (blank) and dilutions of the samples are established with dilution buffer.
as §1
The SIEFED was applied to study the effects of two natural polyphenols (curcumin and resveratrol) on MPO activity.

| Compound | Inhibitory percentage, MPO assay by ELISA in the supernatant after neutrophils activation with PMA ([1]; drug concentration 10^-4 M) [%] | Inhibitory percentage, MPO assay by ELISA in the supernatant after neutrophils activation with PMA (MPO release) [1] [%] | Inhibitory percentage, MPO assay by ELISA in the supernatant after neutrophils activation with PMA ([1]; drug concentration 10^-6 M) [%] | Inhibition percentage on chemiluminescence response of activated neutrophils [2] [%] | Effect on MPO activity (in words) (equine MPO) | Effect on the MPO release by activated neutrophils (in words) ([1]; 10^-4, 10^-5 or 10^-6 M) | Inhibitory percentage, MPO assay by ELISA in the supernatant after neutrophils activation with PMA (MPO release) ([1]; listed as curcumin) [%] | Effect on MPO activity (in words) (equine MPO; listed as curcumin) | Inhibitory percentage, MPO activity (SIEFED) (equine MPO; drug concentration 10^-4 M) [%] | Inhibitory percentage, MPO activity (SIEFED) (equine MPO; drug concentration 10^-5 M) [%] | Inhibitory percentage, MPO activity (SIEFED) (equine MPO; drug concentration 10^-5 M, listed as curcumin) [%] | Inhibitory percentage, MPO activity (SIEFED) (equine MPO; drug concentration 10^-6 M) [%] | Effect on the chemiluminescence response of activated neutrophils (in words) ([2]; 10^-4, 10^-5 or 10^-6 M) |
| --- | --- | --- | --- | --- | --- | --- | --- | --- | --- | --- | --- | --- | --- |
| COc1cc(CCC(=O)CC(=O)CCc2ccc(O)c(OC)c2)ccc1O [tetrahydrocurcumin] | 41 | 18 | 17 | 12 | – | – | – | – | – | – | – | – | – |
| Oc1ccc(C=Cc2cc(O)cc(O)c2)cc1 [resveratrol] | – | – | – | – | direct dose dependent inhibitory effect | – | – | – | – | – | – | – | – |
| COc1cc(/C=C/C(=O)CC(=O)/C=C/c2ccc(O)c(OC)c2)ccc1O [Curcumin] | 83.5 | 43.6 | 0 | 70 | dose dependent inhibitory effects | dose dependent inhibitory effects | 44 | direct dose dependent inhibitory effect | 96.2 | 60.4 | 60 | 21.1 | dose dependent inhibitory effects |
